Experimental findings from patent publication US20240059700A1, “NOVEL DIACYLGLYCERIDE O-ACYLTRANSFERASE 2 INHIBITORS” (Merck Sharp & Dohme LLC, priority 2020, published 2024) are described below.

Some results are limits rather than exact numbers.

For the experiment, the target named is human DGAT2 (hDGAT2) (Homo sapiens (Human), UniProt Q96PD7). Kind of experiment: DGAT2 Enzymatic Activity Assay. It counts as biochemical. The note with it: membrane prep of Sf-9 insect cells expressing hDGAT2; 13C18-triolein product by LC/MS/MS. Here is the method: Sf-9 insect cells were maintained in Grace's insect cell culture medium with 10% heated-inactivated fetal bovine serum, 1% Pluronic F-68 and 0.14 μg/ml Kanamycine sulfate at 27° C. in a shaker incubator. After infection with untagged baculovirus expressing human DGAT2 (hDGAT2) at multiplicity of infection (MOI) 3 for 48 hours, cells were harvested. Cell pellets were suspended in buffer containing 10 mM Tris-HCl pH 7.5, 1 mM EDTA, 250 mM sucrose and Complete Protease Inhibitor Cocktail (Sigma Aldrich), and sonicated on ice. Cell debris were removed by centrifugation at 2000×g for 15 minutes. Membrane fractions were isolated by ultracentrifugation (100,000×g), resuspended in the same buffer, and frozen (−80° C.) for later use. The protein concentration was determined with the Pierce™ BCA Protein Assay Kit (Thermo Fisher Scientific). Expression of protein levels was analyzed by immunoblotting with rabbit anti-DGAT2 antibody (Abcam, ab102831) and donkey anti-rabbit IgG H&L Alexa Fluor® 647 (Abcam, ab150075) followed by detection using Typhoon FLA9000 (GE Healthcare).
Chain of human DGAT2 (hDGAT2) (Q96PD7 whole entry): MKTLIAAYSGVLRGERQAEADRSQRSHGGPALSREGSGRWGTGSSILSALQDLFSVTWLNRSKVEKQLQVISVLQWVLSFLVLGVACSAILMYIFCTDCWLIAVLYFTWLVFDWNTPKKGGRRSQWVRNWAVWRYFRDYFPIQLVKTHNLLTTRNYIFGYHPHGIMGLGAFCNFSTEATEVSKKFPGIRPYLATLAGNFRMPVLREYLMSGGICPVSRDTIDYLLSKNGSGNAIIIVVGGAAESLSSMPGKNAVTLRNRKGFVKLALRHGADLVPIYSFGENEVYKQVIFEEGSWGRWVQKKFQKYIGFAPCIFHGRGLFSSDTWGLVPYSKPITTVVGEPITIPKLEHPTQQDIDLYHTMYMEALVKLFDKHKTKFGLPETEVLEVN
LC/MS/MS analyses were performed using Thermal Fisher's LX4-TSQ Vantage system. This system consists of an Agilent binary high-performance liquid chromatography (HPLC) pumps and a TSQ Vantage triple quadrupole MS/MS instrument. For each sample, 2 μL samples from the top organic layer of in-plate liquid-liquid extraction were injected onto a Thermo Betabasic C4 column (2.1 mm×20 mm, 5 μm particle size). The samples were then eluted using the following conditions; mobile phase: Isopropanol: acetonitrile/10 mM ammonium formate=50/35/15 (v/v/v), flow rate: 0.8 mL/min, temperature: 25° C. Data was acquired in positive mode using a heated electrospray ionization (HESI) interface. The operational parameters for the TSQ Vantage MS/MS instrument were a spray voltage of 3000 V, capillary temperature of 280° C., vaporizer temperature 400° C., sheath gas 45 arbitrary unit, Aux gas 10 arbitrary units, S-lens 165 and collision gas 1.0 mTorr. […] (SRM) chromatograms of ^13C18-triolein (Q1: 920.8>Q3:621.3) and internal standard ^13C21-triolein (Q1: 923.8>Q3:617.3) were collected for 33 sec. The peak area was integrated by Xcalibur Quan software. The ratio between the ^13C18 triolein generated in the reaction and spiked in internal standard ^13C21-triolein was used to generate percentage inhibition and IC50 values. Compound percentage inhibition was calculated by the following formula: Inhibition %=1−[(compound response−low control)/(high control−low control)]×100%. Potent compounds were titrated and IC50 were calculated by 4 parameter sigmoidal curve fitting formula.
DGAT2 activity was determined by measuring the amount of enzymatic product ^13C18-triolein (^13C-1,2,3-Tri(cis-9-octadecenoyl)glycerol) using the membrane prep mentioned above. The assay was carried out in ABgene 384-well assay plates in a final volume of 25 μL at rt. The assay mixture contained the following: assay buffer (100 mM Tris·Cl, pH 7.0, 20 mM MgCl2, 5% ethanol), 25 μM of diolein, 5 μM of ^13C oleoyl-CoA and 8 ng/μL of DGAT2 membrane.
As a reminder, the IC50 is the midpoint of a concentration-inhibition curve. Lower therefore signals greater potency. Molecule `Cn1nc(-c2cccc(OC(F)F)c2)c2ncc(C(=O)NC3(C)CS(=O)(=O)C3)cc21` [Example 26, 3-(3-(difluoromethoxy)phenyl)-1-methyl-N-(3-methyl-1,1-dioxidothietan-3-yl)-1H-pyrazolo[4,3-b]pyridine-6-carboxamide] returned an IC50 of 153 nM.
In the case of `CCn1nc(-c2cccc(OC(F)F)c2)c2ncc(C(=O)NC3(C)CS(=O)(=O)C3)cc21` [Example 27, 3-(3-(difluoromethoxy)phenyl)-1-ethyl-N-(3-methyl-1,1-dioxidothietan-3-yl)-1H-pyrazolo[4,3-b]pyridine-6-carboxamide] it was 111 nM; in that of `CC(C)Cn1nc(-c2cccc(OC(F)F)c2)c2ncc(C(=O)NC3(C)CS(=O)(=O)C3)cc21` [Example 28, 3-(3-(difluoromethoxy)phenyl)-1-isobutyl-N-(3-methyl-1,1-dioxidothietan-3-yl)-1H-pyrazolo[4,3-b]pyridine-6-carboxamide], 29 nM.
On to `CC(C)(C)Cn1nc(-c2cccc(OC(F)F)c2)c2ncc(C(=O)NC3(C)CS(=O)(=O)C3)cc21` [Example 29, 3-(3-(difluoromethoxy)phenyl)-N-(3-methyl-1,1-dioxidothietan-3-yl)-1-neopentyl-1H-pyrazolo[4,3-b]pyridine-6-carboxamide], for which the IC50 was found to be 388 nM.
In the case of `CC1(NC(=O)c2cnc3c(-c4cccc(OC(F)F)c4)nn(C4CC4)c3c2)CS(=O)(=O)C1` [Example 30, 1-cyclopropyl-3-(3-(difluoromethoxy)phenyl)-N-(3-methyl-1,1-dioxidothietan-3-yl)-1H-pyrazolo[4,3-b]pyridine-6-carboxamide] it was 99 nM.
Regarding `CC(C)n1nc(-c2cccc(OC(F)F)c2)c2ncc(C(=O)N[C@@]3(C)CCS(=O)(=O)C3)cc21` [Example 31, (S)-3-(3-(difluoromethoxy)phenyl)-1-isopropyl-N-(3-methyl-1,1-dioxidotetrahydrothiophen-3-yl)-1H-pyrazolo[4,3-b]pyridine-6-carboxamide], the IC50 worked out at 7.2 nM. Compared with the last molecule, the IC50 is about 14-fold lower.
In the case of `CC(C)n1nc(-c2cccc(OC(F)F)c2)c2c(F)cc(C(=O)NC3(C)CS(=O)(=O)C3)cc21` [Example 33, 3-(3-(difluoromethoxy)phenyl)-4-fluoro-1-isopropyl-N-(3-methyl-1,1-dioxidothietan-3-yl)-1H-indazole-6-carboxamide] it was 1 nM; in that of `CC(C)n1nc(-c2cccc(OC(F)F)c2)c2ccc(C(=O)NC3(C)CS(=O)(=O)C3)c(F)c21` [Example 34, 3-(3-(difluoromethoxy)phenyl)-7-fluoro-1-isopropyl-N-(3-methyl-1,1-dioxidothietan-3-yl)-1H-indazole-6-carboxamide], 5.2 nM.
In the case of `Cc1ncc(OC(F)F)cc1-c1nn(C(C)C)c2cc(C(=O)NC3(C)CS(=O)(=O)C3)ncc12` [Example 35, 3-(5-(difluoromethoxy)-2-methylpyridin-3-yl)-1-isopropyl-N-(3-methyl-1,1-dioxidothietan-3-yl)-1H-pyrazolo[4,3-c]pyridine-6-carboxamide] it was 285 nM; in that of `CC(C)n1nc(-c2cc(OC(F)F)ccc2F)c2cnc(C(=O)NC3(C)CS(=O)(=O)C3)cc21` [Example 36, 3-(5-(difluoromethoxy)-2-fluorophenyl)-1-isopropyl-N-(3-methyl-1,1-dioxidothietan-3-yl)-1H-pyrazolo[4,3-c]pyridine-6-carboxamide], 1.7 nM; in that of `CC(C)n1nc(-c2cccc(OC(F)F)c2)c2ncc(C(=O)N[C@]3(C#N)CCOC3)cc21` [Example 38, N-[(3S)-3-cyanotetrahydrofuran-3-yl]-3-[3-(difluoromethoxy)phenyl]-1-isopropyl-pyrazolo[4,3-b]pyridine-6-carboxamide], 11 nM.
In turn, `CC(C)n1nc(-c2cccc(OC(F)F)c2)c2ncc(C(=O)N[C@H]3CCCC[C@@H]3O)cc21` [Example 40, 3-[3-(difluoromethoxy)phenyl]-N-[(1S,2S)-2-hydroxycyclohexyl]-1-isopropyl-pyrazolo[4,3-b]pyridine-6-carboxamide] returned an IC50 of 17 nM. This IC50 is about 1.5-fold higher than that of the molecule before.
For the molecule `CC(C)n1nc(-c2cccc(OC(F)F)c2)c2ncc(C(=O)N[C@@H]3CCC[C@H]3N3CCOCC3)cc21` [Example 41, 3-[3-(difluoromethoxy)phenyl]-1-isopropyl-N-[(1R,2R)-2-morpholinocyclopentyl]pyrazolo[4,3-b]pyridine-6-carboxamide], the IC50 was found to be 72 nM.
In the case of `CC(C)n1nc(-c2cccc(OC(F)F)c2)c2ncc(C(=O)NC(C)(C)C(C)(C)O)cc21` [Example 43, 3-(3-(difluoromethoxy)phenyl)-N-(3-hydroxy-2,3-dimethylbutan-2-yl)-1-isopropyl-1H-pyrazolo[4,3-b]pyridine-6-carboxamide] it was 148 nM.
In the case of `CC(C)n1nc(-c2cccc(OC(F)F)c2)c2ncc(C(=O)N[C@H]3CCC[C@H]3O)cc21` [Example 44, 3-(3-(difluoromethoxy)phenyl)-N-((1S,2R)-2-hydroxycydopentyl)-1-isopropyl-1H-pyrazolo[4,3-b]pyridine-6-carboxamide] it was 64 nM; in that of `CC(O)C(C)NC(=O)c1cnc2c(-c3cccc(OC(F)F)c3)nn(C(C)C)c2c1` (stereo not drawn) [Example 45a, 3-(3-(difluoromethoxy)phenyl)-N-(3-hydroxybutan-2-yl)-1-isopropyl-1H-pyrazolo[4,3-b]pyridme-6-carboxamide], 23 nM; in that of `CC(C)n1nc(-c2cccc(OC(F)F)c2)c2ncc(C(=O)NC3(CO)CCC3)cc21` [Example 49, 3-(3-(difluoromethoxy)phenyl)-N-(1-(hydroxymethyl)cyclobutyl)-1-isopropyl-1H-pyrazolo[4,3-b]pyridine-6-carboxamide], 6.1 nM.
In the case of `CC(C)n1nc(-c2cccc(OC(F)F)c2)c2ncc(C(=O)NC3(CO)CC(F)(F)C3)cc21` [Example 51, N-(3,3-difluoro-1-(hydroxymethyl)cyclobutyl)-3-(3-(difluoromethoxy)phenyl)-1-isopropyl-1H-pyrazolo[4,3-b]pyridine-6-carboxamide] it was 17 nM; in that of `CC(C)[C@H](NC(=O)c1cnc2c(-c3cncc(OC(F)F)c3)nn(C(C)C)c2c1)[C@H](C)O` [Example 54, 3-(5-(difluoromethoxy)pyridin-3-yl)-N-((2S,3S)-2-hydroxy-4-methylpentan-3-yl)-1-isopropyl-1H-pyrazolo[4,3-b]pyridine-6-carboxamide], 13 nM; in that of `CC(C)n1nc(-c2cc(OC(F)F)ccc2F)c2ncc(C(=O)NC(C)(C)CN(C)C)cc21` [Example 55, 3-(5-(difluoromethoxy)-2-fluorophenyl)-N-(1-(dimethylamino)-2-methylpropan-2-yl)-1-isopropyl-1H-pyrazolo[4,3-b]pyridine-6-carboxamide], 212 nM.
Molecule `Cc1ncc(OC(F)F)cc1-c1nn(C(C)C)c2cc(C(=O)N[C@]3(C)CS(=O)(=O)C[C@H]3O)cnc12` [Example 56, 3-(5-(difluoromethoxy)-2-methylpyridin-3-yl)-N-((3S,4S)-4-hydroxy-3-methyl-1,1-dioxidotetrahydrothiophen-3-yl)-1-isopropyl-1H-pyrazolo[4,3-b]pyridine-6-carboxamide] had an IC50 of 209 nM.
In the case of `CCOc1cc(-c2nn(C(C)C)c3cc(C(=O)N[C@@]4(C)CCC[C@H]4O)cnc23)c(F)cn1` [Example 57, 3-(2-ethoxy-5-fluoropyridin-4-yl)-N-((1S,2R)-2-hydroxy-1-methylcyclopentyl)-1-isopropyl-1H-pyrazolo[4,3-b]pyridine-6-carboxamide] it was 15 nM.
Under `CCN1CCN(C(=O)c2cnc3c(-c4cncc(OC(F)F)c4)nn(C(C)C)c3c2)CC1` [Example 58, (3-(5-(difluoromethoxy)pyridin-3-yl)-1-isopropyl-1H-pyrazolo[4,3-b]pyridin-6-yl)(4-ethylpiperazin-1-yl)methanone] stands above 1000 nM; under `CC1(NC(=O)c2cnc3c(-c4cccc(OC(F)F)c4)nn(C4COC4)c3c2)CS(=O)(=O)C1` [Example 61, 3-[3-(difluoromethoxy)phenyl]-N-(3-methyl-1,1-dioxo-thietan-3-yl)-1-(oxetan-3-yl)pyrazolo[4,3-b]pyridine-6-carboxamide], 65 nM.
